# Measurements: ChEMBL document CHEMBL1155600, “Constituents of Boronia pinnata” (J Nat Prod, 2000)
# Tests used:
# [1] = Cytotoxicity against human Raji cells assessed as cell viability at 16 nmol by trypan blue assay
# [2] = Cytotoxicity against human Raji cells assessed as cell viability at 32 nmol by trypan blue assay
# [3] = Cytotoxicity against human Raji cells assessed as cell viability at 3.2 nmol by trypan blue assay
# [4] = Cytotoxicity against human Raji cells assessed as cell viability at 0.32 nmol by trypan blue assay
smiles,measurement,setting,value
O=C(O)/C=C/c1ccc(O)cc1 [COUMARIC ACID],viability at 16 nmol,[1]; Raji cells,> 80%
same,viability at 32 nmol,[2]; Raji cells,60%
same,viability at 3.2 nmol,[3]; Raji cells,> 80%
same,viability at 0.32 nmol,[4]; Raji cells,> 80%
CC(C)=CCc1cc(/C=C/C=O)ccc1O,viability at 16 nmol,[1]; Raji cells,> 80%
same,viability at 32 nmol,[2]; Raji cells,60%
same,viability at 3.2 nmol,[3]; Raji cells,> 80%
same,viability at 0.32 nmol,[4]; Raji cells,> 80%
COc1c2ccccc2nc2occc12 [DICTAMNINE],viability at 16 nmol,[1]; raji,> 80%
same,viability at 32 nmol,[2]; raji,60%
same,viability at 3.2 nmol,[3]; raji,> 80%
same,viability at 0.32 nmol,[4]; raji,> 80%
COc1cc2ccc(=O)oc2c2c1OC(C)(C)C=C2,viability at 16 nmol,[1]; Raji cells,> 80%
same,viability at 32 nmol,[2]; Raji cells,60%
same,viability at 3.2 nmol,[3]; Raji cells,> 80%
same,viability at 0.32 nmol,[4]; Raji cells,> 80%
OC/C=C/c1ccc2c(c1)OCO2,viability at 16 nmol,[1]; Raji cells,> 80%
same,viability at 32 nmol,[2]; Raji cells,70%
same,viability at 3.2 nmol,[3]; Raji cells,> 80%
same,viability at 0.32 nmol,[4]; Raji cells,> 80%
COc1ccc2c(OC)c3ccoc3nc2c1 [EVOLITRINE],viability at 16 nmol,[1]; Raji cells,> 80%
same,viability at 32 nmol,[2]; Raji cells,60%
same,viability at 3.2 nmol,[3]; Raji cells,> 80%
same,viability at 0.32 nmol,[4]; Raji cells,> 80%
COc1cc(C=O)cc(OC)c1O [SYRINGALDEHYDE],viability at 16 nmol,[1]; Raji cells,> 80%
same,viability at 32 nmol,[2]; Raji cells,60%
same,viability at 3.2 nmol,[3]; Raji cells,> 80%
same,viability at 0.32 nmol,[4]; Raji cells,> 80%
COc1cc(=O)n(C)c2c(OC)cccc12,viability at 16 nmol,[1]; Raji cells,> 80%
same,viability at 32 nmol,[2]; Raji cells,60%
same,viability at 3.2 nmol,[3]; Raji cells,> 80%
same,viability at 0.32 nmol,[4]; Raji cells,> 80%
COc1ccc2c(OC)c(CC=C(C)C)c(=O)[nH]c2c1OC [PRESKIMMIANINE],viability at 16 nmol,[1]; Raji cells,> 80%
same,viability at 32 nmol,[2]; Raji cells,60%
same,viability at 3.2 nmol,[3]; Raji cells,> 80%
same,viability at 0.32 nmol,[4]; Raji cells,> 80%
COc1cc(/C=C/C(=O)O)ccc1OCC=C(C)C [BOROPINIC ACID],viability at 16 nmol,[1]; Raji cells,> 80%
same,viability at 32 nmol,[2]; Raji cells,70%
same,viability at 3.2 nmol,[3]; Raji cells,> 80%
same,viability at 0.32 nmol,[4]; Raji cells,> 80%
